Read-outs that look alike come from different tables or passages of the source.
Assays:
Test in all cases: Post-emergence efficacy, Method A
Assay type in all cases: in vivo
[1] = test system: Ipomoea hederacea (IPOHE); details: read-out: Control of weed species after post-emergence application, IPOHE
[2] = test system: Chenopodium album (CHEAL); details: read-out: Control of weed species after post-emergence application, CHEAL
[3] = test system: Amaranthus palmeri (AMAPA); details: read-out: Control of weed species after post-emergence application, AMAPA
Lolium perenne (LOLPE) = details: read-out: Control of weed species after post-emergence application, LOLPE
[4] = test system: Digitaria sanguinalis (DIGSA); details: read-out: Control of weed species after post-emergence application, DIGSA
Eleusine indica (ELEIN) = details: read-out: Control of weed species after post-emergence application, ELEIN
[5] = test system: Echinochloa crus-galli (ECHCG); details: read-out: Control of weed species after post-emergence application, ECHCG
Setaria faberi (SETFA) = details: read-out: Control of weed species after post-emergence application, SETFA
[6] = 500 g/Ha, 100=total damage to plant, 0=no damage, evaluated after 7 and 14 days

Structure (SMILES)	pest or weed control at 500 g/ha [1, 6]	pest or weed control at 500 g/ha [2, 6]	pest or weed control at 500 g/ha [3, 6]	pest or weed control at 500 g/ha (Lolium perenne (LOLPE); [6])	pest or weed control at 500 g/ha [4, 6]	pest or weed control at 500 g/ha (Eleusine indica (ELEIN); [6])	pest or weed control at 500 g/ha [5, 6]	pest or weed control at 500 g/ha (Setaria faberi (SETFA); [6])	pest or weed control at 500 g/ha [1]	pest or weed control at 500 g/ha [2]	pest or weed control at 500 g/ha [3]	pest or weed control at 500 g/ha (Lolium perenne (LOLPE))	pest or weed control at 500 g/ha [4]	pest or weed control at 500 g/ha (Eleusine indica (ELEIN))	pest or weed control at 500 g/ha [5]	pest or weed control at 500 g/ha (Setaria faberi (SETFA))
O=C(O)C[n+]1ccc(-c2nc(C(F)(F)F)ns2)cc1 [Compound A1, 2-[4-[3-(trifluoromethyl)-1,2,4-thiadiazol-5-yl]pyridin-1-ium-1-yl]acetic acid 2,2,2-trifluoroacetate]	40%	90%	100%	70%	70%	90%	60%	90%								
Cc1nsc(-c2cc[n+](CS(=O)(=O)[O-])cc2)n1 [Compound A2, [4-(3-methyl-1,2,4-thiadiazol-5-yl)pyridin-1-ium-1-yl]methanesulfonate]	70%	90%	100%	60%	90%	80%	60%	70%								
CP(=O)([O-])C[n+]1ccc(-c2ncns2)cc1 [Compound A10, methyl-[[4-(1,2,4-thiadiazol-5-yl)pyridin-1-ium-1-yl]methyl]phosphinate]									50%	90%	90%	40%	90%	90%	90%	100%
CC([n+]1ccc(-c2ncns2)cc1)S(=O)(=O)[O-] (stereo not drawn) [Compound A11]	80%	90%	100%	60%	80%	90%	100%	60%								
O=S(=O)([O-])CCC[n+]1ccc(-c2noc(C(F)(F)F)n2)cc1 [Compound A15, 3-[4-[5-(trifluoromethyl)-1,2,4-oxadiazol-3-yl]pyridin-1-ium-1-yl]propane-1-sulfonate]	20%	0%	0%	0%	30%	10%	30%	30%								
O=S(=O)([O-])CC[n+]1ccc(-c2nc(C(F)(F)F)cs2)cc1 [Compound A21]	10%	0%	70%	20%	70%	80%	90%	70%								
O=S(=O)([O-])C[n+]1ccc(-c2ncco2)cc1 [Compound A23]	10%	20%	0%	0%	20%	0%	0%	0%								
CS(=O)(=O)[N-]C(=O)C[n+]1ccc(-c2ncns2)cc1 [Compound A29]	90%	30%	90%	40%	90%	50%	90%	50%								
COP(=O)([O-])C[n+]1ccc(-c2ncns2)cc1 [Compound A30, methoxy-[[4-(1,2,4-thiadiazol-5-yl)pyridin-1-ium-1-yl]methyl]phosphinate]									50%	70%	90%	30%	90%	90%	90%	90%
CCOP(=O)([O-])C[n+]1ccc(-c2ncns2)cc1 [Compound A31]									30%	70%	70%	20%	80%	80%	70%	40%
O=P([O-])(O)C[n+]1ccc(-c2ncns2)cc1 [Compound A32, hydroxy-[[4-(1,2,4-thiadiazol-5-yl)pyridin-1-ium-1-yl]methyl]phosphinate]	0%	20%	60%	10%	50%	40%	70%	20%								
O=S(=O)([O-])CC[n+]1ccc(-c2nc(C(F)(F)F)ns2)cc1 [Compound A38]	60%	60%	90%	70%	50%	80%	60%	40%								
O=S(=O)([O-])CC[n+]1ccc(-c2ncco2)cc1 [Compound A39]	20%	30%	40%	0%	0%	0%	0%	0%								
O=C(O)C[n+]1ccc(-c2ccno2)cc1 [Compound A40]	20%	0%	10%	0%	0%	0%	0%	0%								
O=S(=O)([O-])CC[n+]1ccc(-c2ccno2)cc1 [Compound A41]	0%	0%	10%	0%	10%	0%	10%	10%								
O=S(=O)([O-])C[n+]1ccc(-c2ccsn2)cc1 [Compound A42]	10%	20%	90%	0%	10%	0%	10%	10%								
O=S(=O)([O-])C[n+]1ccc(-c2nc(C(F)(F)F)co2)cc1 [Compound A43]	30%	40%	40%	10%	30%	60%	60%	20%								
O=C(O)C[n+]1ccc(-c2nc(C(F)(F)F)co2)cc1 [Compound A44]	0%	10%	30%	10%	20%	10%	10%	0%								
O=C(O)CC[n+]1ccc(-c2nc(C(F)(F)F)co2)cc1 [Compound A45]	0%	0%	0%	0%	20%	50%	10%	0%								
CCOC(=O)C[n+]1ccc(-c2nncs2)cc1 [Compound A49]	10%	50%	10%	20%	50%	20%	10%	20%								
Cc1noc(-c2cc[n+](CCC(=O)O)cc2)n1 [Compound A50]	30%	70%	40%	50%	90%	40%	20%	80%								

From patent publication US20220104493A1, “HERBICIDAL COMPOUNDS” (SYNGENTA CROP PROTECTION AG, priority 2019, published 2022)
